The record followed here is ChEMBL document CHEMBL1201862, “PubChem BioAssay data set” (2004).

Holding throughout (assay): NCI tumour cell line growth inhibition, 48 h
In assay [1] the test system is ACHN.
For assay [2], the system named is BT-549.
Assay [3] relates to EKVX.
Assay [4] relates to HCC 2998.
The subject of assay [5] is HOP-92.
The test system of assay [6] is HT-29.
The test system of assay [7] is NCI-H23.
Assay [8] relates to OVCAR-4.
Assay [9] concerns OVCAR-5.
In assay [10] the test system is RXF 393.
For assay [11], the system named is SN12C.
Assay [12] relates to SNB-75.
In assay [13] the test system is T47D.
Assay [14] concerns TK-10.
The subject of assay [15] is UACC-257.
For assay [16], the system named is 786-0.
Assay [17] concerns A498.
Assay [18] deals with CAKI-1.
Assay [19] has as its system COLO 205.
For assay [20], the system named is DU-145.
Assay [21] relates to HCT-116.
Assay [22] concerns HCT-15.
The test system of assay [23] is HOP-62.
Assay [24] concerns KM12.
Assay [25] concerns LOX IMVI.
Assay [26] has as its system MDA-MB-231.
In assay [27] the test system is MDA-MB-435.
Assay [28] relates to MOLT-4.
Assay [29] concerns Malme-3M.
For assay [30], the system named is NCI-H226.
Assay [31] has as its system NCI-H522.
Assay [32] relates to NCI/ADR-RES.
Assay [33] relates to OVCAR-3.
Assay [34] relates to OVCAR-8.
Assay [35] concerns RPMI-8226.
Assay [36] has as its system SF-268.
Assay [37] deals with SF-295.
Assay [38] has as its system SF-539.
In assay [39] the test system is SK-MEL-28.
Assay [40] has as its system SK-MEL-5.
Assay [41] deals with SK-OV-3.
Assay [42] relates to SW-620.
The subject of assay [43] is U-251.
In assay [44] the test system is SNB-19.
The subject of assay [45] is A549.
Assay [46] concerns CCRF-CEM.
Assay [47] concerns HL-60.
The test system of assay [48] is IGROV-1.
Assay [49] has as its system K562.
The test system of assay [50] is M14.
Assay [51] concerns MCF7.
For assay [52], the system named is NCI-H460.
Assay [53] relates to SK-MEL-2.
For assay [54], the system named is SR.
The test system of assay [55] is UACC-62.

The structures appear in SMILES notation. “And” between values parts separate entries of the source, which are not always exact repeats. Equal values may be shown once.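 1) Cells in 96-well plates. 2) Compound, 48 h, 5 concentrations. 3) Linear interpolation between surrounding doses. 4) Unreached endpoint = highest concentration. GI50 = concentration required for 50% inhibition of growth.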 The source made the active and inactive calls. Rule as the data show it: active = GI50 up to about 1.1 µM and inactive = higher. A value given as a limit tells only on which side of the number the result lay.

In the case of `COC(=O)CCc1cc(OC)c2c(c1)C(C(=O)OC)C(c1ccc(OC)c(OC)c1)O2` (configuration not stated), the GI50 is 59.2 µM (inactive) in assay [1]; 22.6 µM (inactive) and 42.4 µM (inactive) in assay [2]; > 52.5 µM (inactive) in assay [3]; 60.5 µM (inactive) in [4]; > 95.7 µM (inactive) in [5]; 5.32 µM (inactive) in assay [6]. Also, the GI50 was > 100 µM (inactive) and > 71 µM (inactive) in assay [7]; > 100 µM (inactive) and 58.5 µM (inactive) in assay [8]; > 79.1 µM (inactive) in [9]; 34.9 µM (inactive) in [10]; 62.4 µM (inactive) in assay [11]; 10.6 µM (inactive) in [12]. Moreover, the GI50 was 24.8 µM (inactive) in [13]; > 100 µM (inactive) and > 91.4 µM (inactive) in assay [14]; > 100 µM (inactive) in [15].

On to `Cc1cc2nc3c(C#N)c4c(c(Nc5ccc(Cl)cc5)n3c2cc1C)CCC4`, for which the GI50 in assay [16] is 15.9 µM (inactive); in assay [17], > 100 µM (inactive); in assay [1] it was 20.6 µM (inactive); in assay [2] it was 23.8 µM (inactive); in [18] it was 20.5 µM (inactive); in assay [19] it was 25.2 µM (inactive). For the same molecule, the GI50 was 26.5 µM (inactive) in assay [20]; 33.8 µM (inactive) in assay [3]; 16.7 µM (inactive) in assay [21]; 18.8 µM in assay [22]; 58.7 µM (inactive) in assay [23]; 23.6 µM (inactive) in assay [5]. In addition, the GI50 is 18.1 µM (inactive) in [6]; 32.9 µM (inactive) in assay [24]; 18.7 µM (inactive) in [25]; 20.8 µM (inactive) in assay [26]; 33.5 µM (inactive) in [27]; 6.03 µM (inactive) in assay [28]. Further, the GI50 in assay [29] was 23.8 µM (inactive); in [30], 22.9 µM (inactive); in assay [7] it was 26.3 µM (inactive); in assay [31] it was 13.6 µM (inactive); in assay [32], 22.6 µM (inactive); in [33], 17.9 µM (inactive). The GI50 in assay [8] is 32.5 µM (inactive); in assay [9], 17.3 µM (inactive); in assay [34], 19.3 µM (inactive); in assay [35], 3.66 µM (inactive); in assay [10], 17.3 µM (inactive); in [36] it was 18.4 µM (inactive). Besides, the GI50 in assay [37] is > 100 µM (inactive); in [38], 27.1 µM (inactive); in assay [39] it was 22.1 µM (inactive); in assay [40], 18.2 µM (inactive); in assay [41], > 100 µM (inactive); in assay [11], 19.4 µM (inactive). Also, the GI50 is 30.5 µM (inactive) in assay [12]; 17.9 µM (inactive) in [42]; 30.5 µM (inactive) in [13]; 11.1 µM (inactive) in assay [14]; 18.9 µM (inactive) in assay [43]; 16 µM (inactive) in [15].

For the molecule `Cc1cc(NCCCCCCNc2cc(C)nc3ccc(N)cc23)c2cc(N)ccc2n1`, the GI50 in assay [44] is 58.5 µM (inactive); in assay [43], 62.8 µM (inactive).

Turning to `O=C1c2ccccc2-c2nnc(-c3ccccc3)cc21`, the GI50 in [16] is > 10 µM (inactive); in [45] it was > 10 µM (inactive); in assay [1], > 10 µM (inactive); in assay [18], > 10 µM (inactive); in assay [46], 3.25 µM (inactive); in assay [19] it was > 10 µM (inactive). Also, the GI50 in assay [47] was 5.05 µM (inactive); in [23], > 10 µM (inactive); in [48] it was > 10 µM (inactive); in [49] it was 3.61 µM (inactive); in assay [50] it was > 10 µM (inactive); in [51], 3.37 µM (inactive). Further, the GI50 in assay [27] was > 10 µM (inactive); in assay [28] it was 3.01 µM (inactive); in [29], > 10 µM (inactive); in assay [7] it was > 10 µM (inactive); in assay [52] it was > 10 µM (inactive); in assay [32], > 10 µM (inactive). In addition, the GI50 in assay [8], in assay [9], in assay [35], in assay [10], in assay [36] and in [39] was > 10 µM (inactive) in each case. Moreover, the GI50 is > 10 µM (inactive) in assay [53]; > 10 µM (inactive) in assay [40]; > 10 µM (inactive) in assay [41]; > 10 µM (inactive) in assay [12]; 3.83 µM (inactive) in assay [54]; 7.6 µM (inactive) in assay [42]. Moreover, the GI50 in assay [13] was 4.48 µM (inactive); in assay [43], > 10 µM (inactive); in [55], > 10 µM (inactive).
